Experimental data from PMC9169622 (Proceedings of the National Academy of Sciences of the …, 2022).
Values joined by “and” are separate entries in the source; they are usually repeats but may differ in a detail not shown here. Identical values can stand only once.

Key:
SRC = assay: Western blot of p-SRC Y416, p-AKT S473, p-ERK T202/Y204; format: cell-based, human; conditions: 10 nM
GPR126 [1] = target: T1, GPR126 (Homo sapiens, UniProt Q86SQ4); conditions: angiotensin II and AT1R as controls
T1 sequence (Q86SQ4 38-1221): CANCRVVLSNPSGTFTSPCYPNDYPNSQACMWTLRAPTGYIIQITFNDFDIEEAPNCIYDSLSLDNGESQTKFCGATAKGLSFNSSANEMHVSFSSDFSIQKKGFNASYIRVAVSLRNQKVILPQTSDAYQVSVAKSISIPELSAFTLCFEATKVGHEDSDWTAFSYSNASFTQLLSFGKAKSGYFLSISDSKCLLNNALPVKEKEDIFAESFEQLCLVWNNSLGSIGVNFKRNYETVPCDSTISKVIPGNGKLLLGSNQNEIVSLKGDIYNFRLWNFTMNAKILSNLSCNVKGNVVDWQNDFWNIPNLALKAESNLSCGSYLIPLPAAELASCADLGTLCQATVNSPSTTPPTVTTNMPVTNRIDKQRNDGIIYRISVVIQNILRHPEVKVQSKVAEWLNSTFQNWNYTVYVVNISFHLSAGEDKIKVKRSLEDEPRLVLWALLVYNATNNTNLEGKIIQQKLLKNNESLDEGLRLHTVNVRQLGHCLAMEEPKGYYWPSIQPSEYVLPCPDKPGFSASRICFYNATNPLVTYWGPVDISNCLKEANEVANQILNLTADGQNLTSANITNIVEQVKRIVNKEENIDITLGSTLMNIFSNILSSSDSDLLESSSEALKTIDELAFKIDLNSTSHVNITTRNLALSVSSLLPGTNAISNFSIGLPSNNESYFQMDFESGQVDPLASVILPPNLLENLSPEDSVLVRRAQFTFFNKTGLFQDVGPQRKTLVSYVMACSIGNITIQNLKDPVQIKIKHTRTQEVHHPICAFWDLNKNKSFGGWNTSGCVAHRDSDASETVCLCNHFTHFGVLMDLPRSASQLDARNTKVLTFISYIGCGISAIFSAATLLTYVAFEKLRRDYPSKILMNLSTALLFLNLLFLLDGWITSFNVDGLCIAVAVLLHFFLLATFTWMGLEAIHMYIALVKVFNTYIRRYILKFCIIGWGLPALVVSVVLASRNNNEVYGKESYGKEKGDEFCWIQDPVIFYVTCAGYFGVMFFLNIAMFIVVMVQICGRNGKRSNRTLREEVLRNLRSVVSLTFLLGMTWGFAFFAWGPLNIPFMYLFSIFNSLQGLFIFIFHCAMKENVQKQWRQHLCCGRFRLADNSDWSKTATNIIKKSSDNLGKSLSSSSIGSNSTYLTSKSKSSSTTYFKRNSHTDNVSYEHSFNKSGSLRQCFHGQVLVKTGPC

MDA-MB-231 cells [2] = assay: Nude mouse xenograft model; format: in vivo, nude mice; conditions: 15 mg/kg i.p. every 3 d
MDA-MB-231 cells [3] = format: cell-based, human
GPR126 [4] = target: T1, GPR126; format: cell-based
GPR126 [5] = target: T1, GPR126; assay: cell-based; format: cell-based
GPR126 [6] = target: T1, GPR126; conditions: angiotensin II and AT1R as controls; remark: listed apart in the source
PAQR8 = target: T2, PAQR8 (Homo sapiens, UniProt Q8TEZ7); assay: GloSensor cAMP inhibition assay in HEK293 cells overexpressing PAQR8; format: cell-based; conditions: similar plasma membrane expression levels
T2 sequence (Q8TEZ7 1-354): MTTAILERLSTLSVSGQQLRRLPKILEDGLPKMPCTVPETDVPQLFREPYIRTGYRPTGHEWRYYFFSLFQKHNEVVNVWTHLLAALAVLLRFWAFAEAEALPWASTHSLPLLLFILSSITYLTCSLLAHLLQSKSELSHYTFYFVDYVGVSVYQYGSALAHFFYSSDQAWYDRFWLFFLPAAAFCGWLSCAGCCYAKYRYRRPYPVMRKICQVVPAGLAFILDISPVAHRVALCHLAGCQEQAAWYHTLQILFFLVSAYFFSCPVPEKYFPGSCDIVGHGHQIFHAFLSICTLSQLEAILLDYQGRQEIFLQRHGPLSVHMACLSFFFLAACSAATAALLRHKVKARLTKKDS

full-length GPR126 [7] = assay: cell-based; format: cell-based, human
full-length GPR126 [8] = target: T3, full-length GPR126 (Homo sapiens, UniProt Q86SQ4); assay: cell-based; format: cell-based
T3 sequence (Q86SQ4 38-1221): T1 sequence (Q86SQ4 38-1221)

[9] = Plasma progesterone level after intraperitoneal injection; format: in vivo, nude mice
GPR126 [10] = format: cell-based, human
MDA-MB-231 cells [11] = assay: Colony formation assay; format: cell-based, human

CC(=O)[C@H]1CC[C@H]2[C@@H]3CCC4=CC(=O)CC[C@]4(C)[C@H]3CC[C@]12C [progesterone]
p-SRC Y416 level, F1085A or W1081A overexpressed in GPR126-silenced cells (SRC; 5 min): failed to increase
pY416 SRC phosphorylation, GPR126 wild-type or L937A overexpressed in GPR126-silenced cells (SRC; 5 min): able to promote
time of maximum phosphorylation after treatment (SRC; MDA-MB-231 cells): 5 min
phosphorylation of SRC at Y416, p-AKT S473 and p-ERK T202/Y204 (SRC; MDA-MB-231 cells, time-dependent): promoted
Gq activity of GPR126 (GPR126 [1]): no obvious
rates of mouse weight gain between groups (MDA-MB-231 cells [2]): not significantly different
tumor growth in the Sh-CTRL group (MDA-MB-231 cells [2]; 32 d): significantly enhanced
tumor growth in the Sh-GPR126-1 group (MDA-MB-231 cells [2]; 32 d): minimal effects
size and weight of tumors in the Sh-CTRL group (MDA-MB-231 cells [2]; after 32 d): significantly increased
size and weight of tumors in the Sh-GPR126-1 group (MDA-MB-231 cells [2]; after 32 d): no significant effects
growth of GPR126-silenced cells overexpressing wild-type GPR126 or L937A (MDA-MB-231 cells [3]): significantly promoted
growth promotion in GPR126-silenced cells overexpressing W1081A or F1085A (MDA-MB-231 cells [3]): significantly attenuated
increase in growth rate of Sh-CTRL cells (MDA-MB-231 cells [3]): approximately twofold
induced cell growth in GPR126-silenced cells overexpressing R1057Q (MDA-MB-231 cells [3]): inhibited
proliferation-promoting effect in GPR126-silenced cells (MDA-MB-231 cells [3]): attenuated
cAMP levels in GPR126 knocking down cells (GPR126 [4]): no significant effects
cAMP levels induced by Fsk in GPR126-expressing cells (GPR126 [4]): inhibited
Gs coupling of GPR126 (GPR126 [5]): not detectable
β-arrestin-2 recruitment of GPR126 (GPR126 [6]): no obvious
activation of PAQR8 stronger than GPR126 (potency) (PAQR8): ~100 fold
efficacy at PAQR8 compared with GPR126 (PAQR8): significant lower efficacy
GPR126 activity in cAMP inhibition assay with Ala mutants (full-length GPR126 [7]): significantly impaired
able to inhibit Fsk-induced cAMP accumulation (full-length GPR126 [8]): able to inhibit
EC50 (full-length GPR126 [8]; EC50, cAMP inhibition, full-length GPR126): 540 nM and ~540 nM
maximum plasma concentration ([9]; mice, 15 mg/kg intraperitoneal injection): 151 nM
steady plasma level ([9]; mice, 15 mg/kg intraperitoneal injection, from 8 h): 4.547 nM
Tmax ([9]; nude, mouse, plasma, ip, 15 mg/kg): ~1 h
BRET signal between Nluc-N terminus and FlAsH-labeled S1 site of ECL1 (GPR126 [10]): increase
GPR126 response with mutation of F1085 (GPR126 [10]): impaired
extracellular conformational change of GPR126 with K1001 or F1012 mutated to Ala (GPR126 [10]): no significant effects
BRET signal between Nluc-tagged N terminus and FlAsH-labeled ECL2 (GPR126 [10]; concentration-dependent): significant increase
colony number and size in Sh-CTRL cells (MDA-MB-231 cells [11]; MDA-MB-231 Sh-CTRL, 10 nM): increase
increase in colony number and size after GPR126 knockdown (MDA-MB-231 cells [11]; MDA-MB-231 Sh-GPR126, 10 nM): largely abolished
